The record followed here is ChEMBL document CHEMBL3638513, “Compounds that are ERK inhibitors” (2013).

For the assay, the target named is Mitogen-activated protein kinase 1 (Mus musculus, UniProt P63085). Description: IMAP Assay: Activated ERK2 activity was determined in the IMAP assay format.
Sequence of Mitogen-activated protein kinase 1 (P63085 whole entry): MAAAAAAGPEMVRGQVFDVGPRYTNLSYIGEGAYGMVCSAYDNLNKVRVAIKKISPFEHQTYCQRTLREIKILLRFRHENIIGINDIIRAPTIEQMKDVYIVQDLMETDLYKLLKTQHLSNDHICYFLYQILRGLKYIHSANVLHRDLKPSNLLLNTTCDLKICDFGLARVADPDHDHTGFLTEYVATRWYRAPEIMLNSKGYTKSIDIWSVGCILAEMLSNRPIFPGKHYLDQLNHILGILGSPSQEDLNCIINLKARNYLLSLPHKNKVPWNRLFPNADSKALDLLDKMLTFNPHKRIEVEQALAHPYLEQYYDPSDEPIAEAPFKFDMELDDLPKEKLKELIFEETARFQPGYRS

Regarding `COC[C@@]1(C(=O)Nc2ccc3[nH]nc(-c4ccnc(C5CC5)c4)c3c2)CCN(CC(=O)N2CC=C(c3ccc(-c4ncccn4)cc3)CC2)C1`, it took 18.1 nM to reach half-maximal inhibition (IC50).
